# PMC10770490, “Two distinct modes of action of molecular glues in the plant hormone co-receptor COI1-JAZ system” (iScience, 2023)
# Read-outs that look alike come from different tables or passages of the source.
# Tests used:
# [1] = target: T1, COI1-JAZ1 (Arabidopsis thaliana, UniProt O04197+Q9LMA8, DEL221-253); experiment: biochemical; format: binding
# T1 construct: GST (N, cleaved yes); made in house; host or cells: Sf9 insect cells (COI1-ASK1); JAZ peptide by chemical synthesis
# Experimental: (§1) JAZ1/9 peptides were dissolved in sterilized water to generate 10 mM stock solutions and diluted to prepare 100 μM stock solutions. […] DSF experiments were carried out using StepOnePlus Real-Time PCR System (Thermo Fisher Scientific, Inc., MA, US). Protein Thermal Shift Dye (Thermo Fisher Scientific, Inc., MA, US) was used as the reporter dye. […] Samples were heated from 25 °C to 95 °C. The denaturation curve was obtained using Protein Thermal Shift Software (Thermo Fisher Scientific, Inc., MA, US) to afford ΔTm value for each condition. An average ΔTm value of three independent measurements was plotted, and ΔTm dose-response curves were analyzed with nonlinear curve-fitting analysis to evaluate Ka and Kd values using KaleidaGraph software (v4.1.1, Synergy Software).
# (§2) The determination of the Kd value was conducted by curve fitting the dose-response ΔTm values. Experiments were performed in triplicate to obtain the mean and S.D. (shown as error bars). Dose-response curves were analyzed with the nonlinear curve-fitting analysis to evaluate apparent Ka and Kd values using KaleidaGraph v4.1.1 software.
# [2] = target: T2, COI1 (Arabidopsis thaliana, UniProt O04197); experiment: Differential scanning fluorimetry (DSF) assay, COI1 alone; format: binding; conditions: for shift in the melting point of COI1: COI1 alone, substance titrated
# T2 construct: GST (N, cleaved yes); made in house; host or cells: Sf9 insect cells
# Experimental: as §1, with “COR/COR-MO/CFA-Ile were dissolved in DMSO, (3R,7S)/(3R,7R)-JA-Ile and cis-OPDA were dissolved in ethanol, JA was dissolved in sterilized water to generate 10 mM stock solutions and diluted with corresponding solvent for preparation of 100 μM and 1 mM stock solutions, respectively. JAZ1/9” for “JAZ1/9”
# as §2
# [3] = target: T3, COI1-JAZ9 (Arabidopsis thaliana, UniProt O04197+Q8W4J8); experiment: DSF assay, COI1 with JAZ9 degron peptide (JAZP9); format: binding
# T3 sequence (Q8W4J8 218-238, one chain of several): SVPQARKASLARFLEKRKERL
# Experimental: as §1, with “COR/COR-MO/CFA-Ile were dissolved in DMSO, (3R,7S)/(3R,7R)-JA-Ile and cis-OPDA were dissolved in ethanol, JA was dissolved in sterilized water to generate 10 mM stock solutions and diluted with corresponding solvent for preparation of 100 μM and 1 mM stock solutions, respectively. JAZ1/9” for “JAZ1/9”
# as §2
# [4] = target: T4, GST-COI1 (Arabidopsis thaliana, UniProt O04197); experiment: Isothermal titration calorimetry (iTC), GST-COI1 only; format: binding
# T4 construct: made in house; host or cells: Sf9 insect cells
# T4 sequence (O04197 1-592): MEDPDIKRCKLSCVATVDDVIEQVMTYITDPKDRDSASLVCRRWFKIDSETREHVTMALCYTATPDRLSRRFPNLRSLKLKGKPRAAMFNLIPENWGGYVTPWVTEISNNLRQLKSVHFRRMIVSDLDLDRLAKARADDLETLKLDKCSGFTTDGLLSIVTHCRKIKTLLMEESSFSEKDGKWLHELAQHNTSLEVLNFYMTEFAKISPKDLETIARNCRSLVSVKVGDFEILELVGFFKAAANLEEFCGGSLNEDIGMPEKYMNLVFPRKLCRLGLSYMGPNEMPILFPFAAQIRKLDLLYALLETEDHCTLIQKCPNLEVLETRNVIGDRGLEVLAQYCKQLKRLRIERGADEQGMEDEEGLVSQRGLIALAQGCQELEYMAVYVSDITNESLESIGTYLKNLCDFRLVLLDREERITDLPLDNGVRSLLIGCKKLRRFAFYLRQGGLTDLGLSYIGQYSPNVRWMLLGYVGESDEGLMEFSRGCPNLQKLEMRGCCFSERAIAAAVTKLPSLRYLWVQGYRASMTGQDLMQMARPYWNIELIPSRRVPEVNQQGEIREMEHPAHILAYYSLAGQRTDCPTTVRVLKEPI
# T4 sequence (Q39255 1-160 partner): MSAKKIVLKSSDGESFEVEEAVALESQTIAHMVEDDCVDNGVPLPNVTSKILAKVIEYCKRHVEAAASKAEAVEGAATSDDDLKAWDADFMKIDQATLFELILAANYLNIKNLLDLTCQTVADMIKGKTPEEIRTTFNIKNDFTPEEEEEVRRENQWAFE
# Experimental: (§3) The experiments were performed with iTC 200 Microcalorimeter (MicroCal, Malvern Panalytical, UK) at 25°C. GST-COI1 concentration was determined by BCA assay (Thermo Fisher Scientific, Inc., MA, US) using NanoPhotometerN60 (IMPLEN GmbH, Germany). […] The measurements were carried out by 19 × 2 μL successive injections of solutions (initial injection of 0.4 μL), with a 180s spacing time between injections, stirring of 750 rpm, and a reference power of 5 μcal/s. The measured heat changes of the binding reactions were integrated and processed using the standard “one set of sites” model implemented in the Origin (version 7.0) software package to determine the binding stoichiometry (n) and the equilibrium dissociation constant (Kd) and other thermodynamic parameters (ΔG, ΔH, ΔS).
# [5] = target: T5, GST-COI1/JAZP1 (Arabidopsis thaliana, UniProt O04197+Q9LMA8, DEL221-253); experiment: Isothermal titration calorimetry (iTC), GST-COI1/JAZP1; format: binding
# T5 construct: made in house; host or cells: Sf9 insect cells (GST-COI1/ASK1); JAZ peptide by chemical synthesis
# T5 sequence (Q9LMA8 200-220, stated change not applied, one chain of several): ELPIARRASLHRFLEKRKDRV
# Experimental: The experiments were performed with iTC 200 Microcalorimeter (MicroCal, Malvern Panalytical, UK) at 25°C. […] The measurements were carried out by 19 × 2 μL successive injections of solutions (initial injection of 0.4 μL), with a 180s spacing time between injections, stirring of 750 rpm, and a reference power of 5 μcal/s. The measured heat changes of the binding reactions were integrated and processed using the standard “one set of sites” model implemented in the Origin (version 7.0) software package to determine the binding stoichiometry (n) and the equilibrium dissociation constant (Kd) and other thermodynamic parameters (ΔG, ΔH, ΔS).
# [6] = system: T6, JAZP1; experiment: Isothermal titration calorimetry (iTC), JAZP1 only; format: binding, Arabidopsis thaliana; conditions: 150 μM ligand into JAZP1 (10 μM), only heat of dilution
# T6 construct: made in house; host or cells: chemical peptide synthesis
# Experimental: as §3
# [7] = Isomerization under DSF conditions analyzed by UPLC-MS/MS; format: physicochemical; conditions: DSF heating conditions
# Description: Thus, some amount of (3R, 7S)-JA-Ile still exists under the DSF heating conditions.
# [8] = parameters: method as in PMID 19349968; conditions: after 1 h of heating at 95°C ref 12; cited from earlier work
# [9] = target: T3, COI1-JAZ9; parameters: method as in PMID 19349968; conditions: pull-down assay, times stronger ref 12; cited from earlier work
# [10] = target: T2, COI1; conditions: read-out: Kd (COI1, iTC assay); previously reported using the iTC assay ref 18; cited from earlier work
# [11] = target: COI1-JAZP1; parameters: method as in PMID 20927106; conditions: previously obtained ref 19; cited from earlier work
smiles,measurement,setting,value
"CC/C=C\C[C@H]1C(=O)CC[C@@H]1CC(=O)O (racemic) [racemic jasmonic acid, jasmonic acid]",effect of addition of JAZP1/9 on the shift in melting point,"[1]; DSF, COI1 with JAZP1/9",did not affect the shift in melting point
same,shift in the melting point of COI1,[2]; DSF,no shift
"CC/C=C\C[C@@H]1C(=O)CC[C@@H]1CC(=O)N[C@H](C(=O)O)[C@@H](C)CC [(3R, 7S)-JA-Ile, (3R, 7S)-jasmonoyl-L-isoleucine]",Kd,[1]; read-out: Kd COI1-JAZ1,17.7 µM
same,Kd,[3],7.39 µM
same,Kd,[4],11 µM
same,-TΔS,"[4]; iTC, GST-COI1",13.3 kcal/mol
same,ΔG,"[4]; iTC, GST-COI1",-6.8 kcal/mol
same,ΔH,"[4]; iTC, GST-COI1",-20.0 kcal/mol
same,n (binding stoichiometry),"[4]; iTC, GST-COI1, N = 1 set manually due to low C condition",1.00
same,-TΔS,[5],14.8 kcal/mol
same,n (binding stoichiometry),[5],0.641±0.0063
same,ΔG,[5],-9.5 kcal/mol
same,ΔH,[5],-24.3 kcal/mol
same,interaction between JAZP1-ligand,[6],no interaction
same,"(3R, 7R)-JA-Ile formed by isomerization under DSF conditions",[7],63.9%
same,"(3R, 7S)-JA-Ile remaining under DSF conditions",[7],36.1%
same,"(3R, 7S)-JA-Ile isomerized to (3R, 7R)-JA-Ile",[8],65%
"CC[C@H]1C=C(C(=O)N[C@H](C(=O)O)[C@@H](C)CC)[C@H]2CCC(=O)[C@H]2C1 [CFA-Ile, (3R, 7S)-coronafacyl L-Ile]",Kd,[1]; read-out: Kd COI1-JAZ1,2.66 µM
same,Kd,[3],2.95 µM
same,Kd,[2],14.1 µM
same,shift in the melting point of COI1,[2]; DSF,significant shift
"CCC1C=C(C(=O)N[C@H](C(=O)O)C(C)C)C2CCC(=O)C2C1 (stereo partly drawn) [CFA-Val, (3R, 7S)-coronafacyl L-Val]",Kd,"[1]; DSF, 1 μM tag-free COI1 with 3 μM JAZP1, read-out: Kd COI1-JAZ1",6.63 µM
same,Kd,"[3]; DSF, 1 μM tag-free COI1 with 3 μM JAZP9",9.77 µM
same,shift in the melting point of COI1,[2]; DSF,significant shift
same,Kd,"[2]; read-out: Kd COI1, DSF, 1 μM tag-free COI1, ΔTm dose-response curve fitting",28.1 µM
"CC[C@H]1C=C(C(=O)N[C@@]2(C(=O)O)C[C@@H]2CC)[C@H]2CCC(=O)[C@H]2C1 [COR, coronatine]","affinity for COI1-JAZ9 relative to (3R, 7S)-JA-Ile",[9],approximately 100 times
same,Kd,[1]; read-out: Kd COI1-JAZ1,0.6 µM
same,Kd,[3],0.29 µM
same,Kd,[2],4.08 µM
same,shift in the melting point of COI1,[2]; DSF,shifted to a higher temperature
same,Kd,[10],0.96 µM
same,Kd,[11],~0.11 µM
CC[C@H]1C=C(C(=O)N[C@@]2(C(=O)O)C[C@@H]2CC)[C@H]2CCC(=NOC)[C@H]2C1 [COR-MO],Kd,[1]; read-out: Kd COI1-JAZ1,2.31 µM
same,Kd,[3],2.67 µM
same,Kd,[2],2.65 µM
same,shift in the melting point of COI1,[2]; DSF,shifted to a higher temperature
"CCC=CCC1C(=O)CCC1CC(=O)NC1(C(=O)O)CC1CC [JA-CMA, (3R, 7S)/(3R, 7R)-jasmonoyl CMA]",Kd,[1],33.5 µM
same,Kd,[3],24.2 µM
same,shift in the melting point of COI1,[2]; DSF,little or no shift
"CC/C=C\C[C@@H]1C(=O)C=C[C@@H]1CCCCCCCC(=O)O [cis-OPDA, (+)-cis-12-oxo-phytodienoic acid]",shift in the melting point of COI1,[2]; DSF,no shift
